Key:
[1] = test system: dopaminergic and serotonergic neurotransmission; conditions: in vivo microdialysis; cited from earlier work
[2] = test system: rat hippocampal slices; conditions: 10-30 μg/mL; cited from earlier work
[3] = test system: cultured mouse spinal cord neurons; conditions: 10-30 μg/mL, cited from earlier work
[4] = cited from earlier work
[5] = test system: GABA/benzodiazepine receptor ionophore complex; conditions: in vitro; cited from earlier work
[6] = Pharmacovigilance review of rhabdomyolysis/CPK elevation in zonisamide-treated patients; assay type: in vivo, human patients (U.S. and Japan)
Text: The pharmacovigilance data that were collected, reviewed and analyzed provided the following information in respect of the incidence of rhabdomyolysis/CPK elevation in the zonisamide-treated patient population. To date, a total of 10 cases fulfill the criteria of potential rhabdomyolysis cases. These 10 cases were reviewed in detail for evaluation of possible safety signals. All 10 cases fulfill serious criteria. Of these 10 cases, seven (7) cases were reported as rhabdomyolysis and three (3) cases were reported as CPK increase.
Of the seven (7) rhabdomyolysis cases, six (6) are verbatim cases from Dainippon and one (1) originates in the U.S. Of the seven (7) cases, three (3) were pediatric cases and four (4) were adult cases.
Of the seven (7) rhabdomyolysis cases, two (2) cases have strong confounding factors, but the possibility of zonisamide involvement cannot be completely excluded. Two (2) cases have moderate confounding factors, and zonisamide involvement may be possible.
Of the three (3) cases of CPK increase, one (1) is a verbatim report from Dainippon, and two (2) originated from the U.S. Of the three (3) cases, two are pediatric patients and one is an adult. Of these three (3) cases, two (2) recovered and the outcome of the third is unknown.
Of the three (3) cases of CPK increase, one (1) case has strong confounding factors, but the possibility of zonisamide involvement cannot be completely excluded. One (1) case has weak confounding factors, and zonisamide involvement may be possible.
Estimates of zonisamide exposure, based upon retail and mail order prescriptions, indicate that the number of unique patients taking zonisamide capsules in the U.S. is about 37,276 (total prescriptions per year/average number of prescriptions per patient per year less a calculated percentage decrease based on estimated annual dropouts) in the time between approval in 2000 and December 2002 . Hospital patient data for that period, however, is not available and is not reflected in the estimates. Estimates of patient exposure for Japan indicate that the number of unique patients taking zonisamide is about 1,185,177 for time beginning with the approval in Japan through December 2002. Japanese data includes prescription and hospital patient data. Exposure from clinical trials are not included in the U.S. or Japanese exposure estimates. Based on these statistics, the estimated number of patients exposed to zonisamide in the U.S. and Japan is 1,222,453 unique patients. This is a rather conservative estimate, assuring that the number of patients actually exposed to zonisamide is unlikely to be higher than the estimate provided. Similarly, the incidences of rhabdomyolysis estimated herein are unlikely to be higher than calculated. […] For the one (1) case reported in Japan, this amounts to an estimated incidence of 1:1,185,177 based upon estimated Japanese exposure. For the one (1) case reported in the US, this represents an estimated incidence of 1:37,276 based upon estimated US exposure. These two (2) cases of CPK increase represent a combined estimated incidence of 1:611,227 based upon the combined estimates of Japanese and US exposure. Thus, the overall estimated incidences of elevated CPK are 1:395,059 for Japanese cases, 1:18,638 for US cases and 1:244,491 for both Japanese and US cases, based on combining the reported cases of rhabdomyolysis and elevated CPK (the standard surrogate marker of muscle breakdown and typically seen in rhabdomyolysis).
Combining all the above cases of rhabdomyolysis and CPK increase, the estimated incidences of any patient who has experienced an elevated CPK (marker of muscle breakdown) are 1:400,000 for Japanese cases and 1:18,000 for US cases.

[7] = test system: sodium channels; conditions: in vitro; cited from earlier work
[8] = test system: carbonic anhydrase; conditions: fraction of the inhibition of acetazolamide; cited from earlier work
[9] = test system: T-type Ca2+ currents; conditions: in vitro; cited from earlier work

NS(=O)(=O)Cc1noc2ccccc12 [zonisamide, 1,2-benzisoxazole-3-methanesulfonamide]
dopaminergic and serotonergic neurotransmission [1]: facilitates
neuronal or glial uptake of [3H]-GABA [2]: without affecting
postsynaptic GABA or glutamate responses ([3]; cultured mouse spinal cord neurons): without affecting
synaptically-driven electrical activity [3]: suppresses
frequency of side effects by dose ([4]; doses of 300 mg per day and above): more frequent
half-life ([4]; human, in vivo): long half-life
hepatic enzyme induction ([4]; human, in vivo): not known to be a hepatic enzyme inducer
time required to achieve steady state levels ([4]; upon reaching a stable dose or following dosage adjustment): up to two weeks
binding to GABA/benzodiazepine receptor ionophore complex [5]: binds to the GABA/benzodiazepine receptor ionophore complex in an allosteric fashion
changes in chloride flux [5]: does not produce changes in chloride flux
CPK increase cases recovered ([6]; human, in vivo): 2 cases
cases fulfilling the criteria of potential rhabdomyolysis cases ([6]; human, in vivo): 10 cases
cases of CPK increase with no or only weak confounding factors present ([6]; human, in vivo): 2 cases
cases of rhabdomyolysis with no or only weak confounding factors present ([6]; human, in vivo): 3 cases
cases reported as CPK increase ([6]; human, in vivo): 3 cases
cases reported as rhabdomyolysis ([6]; human, in vivo): 7 cases
combined estimated incidence of CPK increase ([6]; human, in vivo): 1:611,227
rhabdomyolysis cases not recovered ([6]; human, in vivo): 2 cases
rhabdomyolysis cases recovered ([6]; human, in vivo): 2 cases
rhabdomyolysis cases recovering at time of report ([6]; human, in vivo): 1 cases
time to development of CPK increase after initiation of zonisamide treatment ([6]; human, in vivo): two (2) days and six (6) weeks
time to development of rhabdomyolysis after initiation of zonisamide treatment ([6]; human, in vivo): two (2) weeks and nine (9) years
rhabdomyolysis cases with fatal outcome ([6]; of 7 rhabdomyolysis cases): 2 cases
effect on sodium channels [7]: blocks sodium channels
carbonic anhydrase inhibition compared to acetazolamide [8]: 1/50
effect on voltage-dependent, transient inward currents (T-type Ca2+ currents) [9]: reduces

— patent US20050154034A1, “Methods of using zonisamide as an adjunctive therapy for partial seizures” (Eisai Co., Ltd., priority 2004, published 2005)
